The results in this text go back to patent publication US8420060B2, “Pharmaceutical aerosol formulations of formoterol and beclometasone dipropionate” (Chiesi Farmaceutici S.p.A., priority 2009, dated 2013).

Structures are written as SMILES. Counter-ions that a name gives are not always drawn. Like-named read-outs stand apart in the source and are kept apart here.

The nature of data set [1]: Aerosol performances by Andersen Cascade Impactor (Eur. Pharm. 2.09.18), HPLC quantification. Format: physicochemical. The settings on record: Example 5 formulation, mean n = 2; for Delivered Dose: 63 μl valve, nominal 6 μg formoterol / 50 μg BDP per actuation; for Fine particle dose: ACI S3 to filter, particles ≦4.7 microns; for Fine particle fraction: ratio respirable dose / delivered dose. The protocol:
This formulation was filled into an aluminum canister under pressure and fitted with a metering valve having a 63 μl metering chamber.
Quantification of beclometasone dipropionate (BDP) and formoterol fumarate dehydrate (FF) was performed using a HPLC method. The following parameters were determined: • i) delivered dose is calculated from the cumulative deposition in the ACI, divided by the number of actuations per experiment; • ii) respirable dose (fine particle dose=FPD) is obtained from the deposition from Stages 3 (S3) to filter (AF) of the ACI, corresponding to particles of diameter ≦4.7 microns, divided by the number of actuations per experiment; • iii) respirable fraction (fine particle fraction=FPF) which is the percent ratio between the respirable dose and the delivered dose; • iv) mass median aerodynamic diameter (MMAD) which is the diameter around which the mass aerodynamic diameters of the emitted particles are distributed equally; and • v) Geometric standard deviation (GSD) which is a measure of the spread of the aerodynamic particle size distribution.

Data set [2] can be described thus: Storage (chemical) stability of HFA134a/ethanol pMDI solution. It counts as physicochemical. Particulars: BDP in ethanol/HFA134a mixture, room temperature. The protocol:
However, although it has the apparent pH adjusted according to the teaching of WO 01/89480 for improving its chemical stability, due to the limited stability of formoterol in solution, said formulation can be stored for no longer than 15 months at a refrigerator temperature (from +2 to +8° C.) and for no longer than 5 months at room temperature.

Regarding `CCC(=O)OCC(=O)[C@@]1(OC(=O)CC)[C@@H](C)C[C@H]2[C@@H]3CCC4=CC(=O)C=C[C@]4(C)[C@@]3(Cl)[C@@H](O)C[C@@]21C` [BDP, (8S,9R,10S,11S,13S,14S,16S,17R)-9-chloro-11-hydroxy-10,13,16-trimethyl-3-oxo-17-[2-(propionyloxy)acetyl]-6,7,8,9,10,11,12,13,14,15,16,17-dodecahydro-3H-cyclopenta[a]phenanthren-17-yl propionate], in data set [1], the “Delivered Dose” value amounted to 46.0 µg, the Fine particle dose turned out to be 30.0 µg, the GSD is recorded as 2.2 and the MMAD is listed as 1.1 μm. Further, in data set [1], the Fine particle fraction came out at 64.0%. The “storage time without significant degradation” value in data set [2] was “at least 35 months”.

As for `COc1ccc(C[C@@H](C)NC[C@H](O)c2ccc(O)c(NC=O)c2)cc1` (racemic) [formoterol fumarate dihydrate, 2′-hydroxy-5′-[(RS)-1-hydroxy-2{[(RS)-p-methoxy-α-methylphenethyl]amino}ethyl]formanilide], in data set [1], the “Delivered Dose” value amounted to 3.9 µg, the Fine particle dose is 2.3 µg, the GSD stood at 1.5 and the MMAD came out at 2.0 μm. Besides, the Fine particle fraction in data set [1] turned out to be 59.3%. Further, the “change of formoterol fumarate dihydrate solubility in the presence of BDP” value (HFA227:ethanol 92.5:7.5 (w/w)) was “does not change”. Besides, the “change of formoterol fumarate dihydrate solubility in the presence of BDP” value (HFA227:ethanol 97.3:2.7 (w/w)) is “does not change”.
